Patent US20230284620A1, “MIXTURES OF PYRIDAZINES AS HERBICIDAL COMPOSITIONS” (SYNGENTA CROP PROTECTION AG, priority 2020, published 2023)

Legend:
Assay in all cases: Post-emergence glasshouse herbicide test, visual phytotoxicity
Assay type in all cases: in vivo
Conditions in all cases: 13 days
[1] = test system: Digitaria sanguinalis (DIGSA)
Protocol: (§1) Seeds of Setaria faberi (SETFA), Echinochloa crus-galli (ECHCG), Digitaria sanguinalis (DIGSA), Lolium perenne (LOLPE), Alopecurus myosuroides (ALOMY), Chenopodium album (CHEAL), Ipomoea hederacea (IPOHE), Stellaria media (STEME), Abutilon threophrasti (ABUTH) and Amaranthus retroflexus (AMARE) were sown in standard sterilised soil in pots. After cultivation for 8 days under controlled conditions in a glasshouse (at 24/19° C., day/night; 16 hours light; no humidity control), the plants were sprayed at 500 l/Ha with an aqueous spray solution derived from the formulation of the technical active ingredients in a small amount of acetone and a solvent and emulsifier mixture referred to as IF50 (11.12% Emulsogen EL360 TM+44.44% N-methylpyrrolidone+44.44% Dowanol DPM glycol ether), to create a 50 g/l solution which was then diluted using 0.2% Genapol X080 (CAS Number: 9043-30-5) as diluent to give the desired final dose of test compound.
(§2) Where active ingredients were applied as mixtures, aqueous spray solutions were prepared as above, containing both active ingredients.
(§3) The test plants were then grown under controlled conditions in a glasshouse (at 24/18° C., day/night; 15 hours light; 50% humidity) and watered twice daily. After 13 days, the test was evaluated visually for percentage phytotoxicity to the plants (where 100=total damage to plant; 0=no damage to plant; and NC=not captured) when compared to control untreated plants. Two to four replicates were applied for each treatment in a randomised block test design.
(§4) 22., E=X+Y−(X*Y/100), where • X=average percent phytotoxicity of herbicide A when applied at a certain rate • Y=average percent phytotoxicity using herbicide B when applied at a certain rate • E=the expected effect of the mixture of herbicides A and B as calculated from the Colby formula.

[2] = test system: Chenopodium album (CHEAL)
Protocol: as §1, §2, §3, §4

[3] = test system: Lolium perenne (LOLPE)
Protocol: as §1, §2, §3, §4

[4] = test system: Stellaria media (STEME)
Protocol: as §1, §2, §3, §4

[5] = test system: Ipomoea hederacea (IPOHE)
Protocol: as §1, §2, §3, §4

[6] = test system: Echinochloa crus-galli (ECHCG)
Protocol: as §1, §2, §3, §4

[7] = test system: Setaria faberi (SETFA)
Protocol: as §1, §2, §3, §4

[8] = test system: Amaranthus retroflexus (AMARE)
Protocol: as §1, §2, §3, §4

[9] = test system: Abutilon threophrasti (ABUTH)
Protocol: as §1, §2, §3, §4

[10] = test system: Alopecurus myosuroides (ALOMY)
Protocol: as §1, §2, §3, §4

SMILES: Nc1c(F)c(-c2ccc3cc[nH]c3c2F)nc(C(=O)O)c1Cl [B-VI]
- percentage phytotoxicity DIGSA ([1]; 0.625 g/ha): 0%
- percentage phytotoxicity DIGSA ([1]; 1.25 g/ha): 0%
- percentage phytotoxicity DIGSA ([1]; 2.5 g/ha): 13%
- percentage phytotoxicity DIGSA ([1]; 5 g/ha): 15%
- percentage phytotoxicity DIGSA ([1]; 10 g/ha): 43%
- percentage phytotoxicity CHEAL ([2]; 0.625 g/ha): 75%
- percentage phytotoxicity CHEAL ([2]; 1.25 g/ha): 80%
- percentage phytotoxicity CHEAL ([2]; 2.5 g/ha): 83%
- percentage phytotoxicity CHEAL ([2]; 5 g/ha): 94%
- percentage phytotoxicity CHEAL ([2]; 10 g/ha): 98%
- percentage phytotoxicity LOLPE ([3]; 0.625 g/ha): 0%
- percentage phytotoxicity LOLPE ([3]; 1.25 g/ha): 0%
- percentage phytotoxicity LOLPE ([3]; 2.5 g/ha): 5%
- percentage phytotoxicity LOLPE ([3]; 5 g/ha): 5%
- percentage phytotoxicity LOLPE ([3]; 10 g/ha): 25%
- percentage phytotoxicity STEME ([4]; 0.625 g/ha): 65%
- percentage phytotoxicity STEME ([4]; 1.25 g/ha): 75%
- percentage phytotoxicity STEME ([4]; 2.5 g/ha): 90%
- percentage phytotoxicity STEME ([4]; 5 g/ha): 93%
- percentage phytotoxicity STEME ([4]; 10 g/ha): 99%
- percentage phytotoxicity IPOHE ([5]; 0.625 g/ha): 25%
- percentage phytotoxicity IPOHE ([5]; 1.25 g/ha): 35%
- percentage phytotoxicity IPOHE ([5]; 2.5 g/ha): 38%
- percentage phytotoxicity IPOHE ([5]; 5 g/ha): 48%
- percentage phytotoxicity IPOHE ([5]; 10 g/ha): 65%
- percentage phytotoxicity ECHCG ([6]; 0.625 g/ha): 0%
- percentage phytotoxicity ECHCG ([6]; 1.25 g/ha): 0%
- percentage phytotoxicity ECHCG ([6]; 2.5 g/ha): 25%
- percentage phytotoxicity ECHCG ([6]; 5 g/ha): 10%
- percentage phytotoxicity ECHCG ([6]; 10 g/ha): 53%
- percentage phytotoxicity SETFA ([7]; 0.625 g/ha): 0%
- percentage phytotoxicity SETFA ([7]; 1.25 g/ha): 0%
- percentage phytotoxicity SETFA ([7]; 2.5 g/ha): 5%
- percentage phytotoxicity SETFA ([7]; 5 g/ha): 2%
- percentage phytotoxicity SETFA ([7]; 10 g/ha): 40%
- percentage phytotoxicity AMARE ([8]; 0.625 g/ha): 83%
- percentage phytotoxicity AMARE ([8]; 1.25 g/ha): 83%
- percentage phytotoxicity AMARE ([8]; 2.5 g/ha): 90%
- percentage phytotoxicity AMARE ([8]; 5 g/ha): 98%
- percentage phytotoxicity AMARE ([8]; 10 g/ha): 100%
- percentage phytotoxicity ABUTH ([9]; 0.625 g/ha): 48%
- percentage phytotoxicity ABUTH ([9]; 1.25 g/ha): 70%
- percentage phytotoxicity ABUTH ([9]; 2.5 g/ha): 78%
- percentage phytotoxicity ABUTH ([9]; 5 g/ha): 80%
- percentage phytotoxicity ABUTH ([9]; 10 g/ha): 93%
- percentage phytotoxicity ALOMY ([10]; 0.625 g/ha): 0%
- percentage phytotoxicity ALOMY ([10]; 1.25 g/ha): 0%
- percentage phytotoxicity ALOMY ([10]; 2.5 g/ha): 10%
- percentage phytotoxicity ALOMY ([10]; 5 g/ha): 8%
- percentage phytotoxicity ALOMY ([10]; 10 g/ha): 25%

SMILES: CN1C[C@H](c2cccc(C(F)(F)F)c2)[C@@H](C(=O)Nc2ccccc2F)C1=O [B-III]
- percentage phytotoxicity DIGSA ([1]; 3.125 g/ha): 72%
- percentage phytotoxicity DIGSA ([1]; 6.25 g/ha): 74%
- percentage phytotoxicity DIGSA ([1]; 12.5 g/ha): 78%
- percentage phytotoxicity DIGSA ([1]; 25 g/ha): 79%
- percentage phytotoxicity DIGSA ([1]; 50 g/ha): 80%
- percentage phytotoxicity CHEAL ([2]; 3.125 g/ha): 6%
- percentage phytotoxicity CHEAL ([2]; 6.25 g/ha): 10%
- percentage phytotoxicity CHEAL ([2]; 12.5 g/ha): 14%
- percentage phytotoxicity CHEAL ([2]; 25 g/ha): 44%
- percentage phytotoxicity CHEAL ([2]; 50 g/ha): 56%
- percentage phytotoxicity LOLPE ([3]; 3.125 g/ha): 30%
- percentage phytotoxicity LOLPE ([3]; 6.25 g/ha): 43%
- percentage phytotoxicity LOLPE ([3]; 12.5 g/ha): 55%
- percentage phytotoxicity LOLPE ([3]; 25 g/ha): 70%
- percentage phytotoxicity LOLPE ([3]; 50 g/ha): 75%
- percentage phytotoxicity STEME ([4]; 3.125 g/ha): 13%
- percentage phytotoxicity STEME ([4]; 6.25 g/ha): 21%
- percentage phytotoxicity STEME ([4]; 12.5 g/ha): 14%
- percentage phytotoxicity STEME ([4]; 25 g/ha): 46%
- percentage phytotoxicity STEME ([4]; 50 g/ha): 71%
- percentage phytotoxicity IPOHE ([5]; 3.125 g/ha): 9%
- percentage phytotoxicity IPOHE ([5]; 6.25 g/ha): 11%
- percentage phytotoxicity IPOHE ([5]; 12.5 g/ha): 15%
- percentage phytotoxicity IPOHE ([5]; 25 g/ha): 24%
- percentage phytotoxicity IPOHE ([5]; 50 g/ha): 28%
- percentage phytotoxicity ECHCG ([6]; 3.125 g/ha): 70%
- percentage phytotoxicity ECHCG ([6]; 6.25 g/ha): 70%
- percentage phytotoxicity ECHCG ([6]; 12.5 g/ha): 73%
- percentage phytotoxicity ECHCG ([6]; 25 g/ha): 73%
- percentage phytotoxicity ECHCG ([6]; 50 g/ha): 75%
- percentage phytotoxicity SETFA ([7]; 3.125 g/ha): 66%
- percentage phytotoxicity SETFA ([7]; 6.25 g/ha): 68%
- percentage phytotoxicity SETFA ([7]; 12.5 g/ha): 70%
- percentage phytotoxicity SETFA ([7]; 25 g/ha): 74%
- percentage phytotoxicity SETFA ([7]; 50 g/ha): 73%
- percentage phytotoxicity AMARE ([8]; 3.125 g/ha): 4%
- percentage phytotoxicity AMARE ([8]; 6.25 g/ha): 6%
- percentage phytotoxicity AMARE ([8]; 12.5 g/ha): 10%
- percentage phytotoxicity AMARE ([8]; 25 g/ha): 21%
- percentage phytotoxicity AMARE ([8]; 50 g/ha): 31%
- percentage phytotoxicity ABUTH ([9]; 3.125 g/ha): 10%
- percentage phytotoxicity ABUTH ([9]; 6.25 g/ha): 4%
- percentage phytotoxicity ABUTH ([9]; 12.5 g/ha): 3%
- percentage phytotoxicity ABUTH ([9]; 25 g/ha): 19%
- percentage phytotoxicity ABUTH ([9]; 50 g/ha): 18%
